Results taken from patent US20020106375A1, “Non-cytolytic soluble factor from activated-expanded CD4 cells” (priority 2000, published 2002).
Counter-ions that a name gives are not always drawn. Like-named read-outs stand apart in the source and are kept apart here.

Tests used:
[1] = tested on: FasR (CD95) of LS513 cells; test: FasR (CD95) expression by flow cytometry, LS513; assay type: cell-based, human
Method: (§1) Flow cytometry was used to assess FasR expression and cell cycle. Analysis of cell cycle was performed using propidium iodide on a Coulter EPICS Elite flow cytometer (Coulter Corporation) equipped with a 488 nm, 15 mW, air-cooled Argon laser. […] Optical laser alignment calibration of the flow cytometer was performed using Coulter's DNA-Check EPICS alignment fluorosphere beads with coefficient of variations routinely less than 2%. PI fluorescent light emission was collected through a 610 nm, long-pass transmission filter. PI signal was measured in linear mode and extended analysis of DNA content was performed using the ModFit LT program (Verity Software House, Inc., Topsham, Me.). Data are presented as the percentage of cells in G1-G0, S and G2-M.

[2] = tested on: FasR (CD95) of SW480 cells; test: FasR (CD95) expression by flow cytometry, SW480; assay type: cell-based, human
Method: as §1

[3] = tested on: caspase-3; test: Caspase-3 activity, colorimetric, colorectal cancer cells; assay type: cell-based, human
Method: (§2) Caspase-3 and caspase-8 activities were determined using a calorimetric assay kit (R&D Systems, Inc., Minneapolis, Minn.). Assays were conducted according to the instructions of the manufacturer.

[4] = tested on: caspase-8; test: Caspase-8 activity, colorimetric, colorectal cancer cells; assay type: cell-based, human
Method: as §2

[5] = target: T1, topoisomerase I-DNA complexes (Homo sapiens, UniProt P11387); test: Topoisomerase I-DNA complexes in LS513 cells; assay type: cell-based; conditions: factor 25%, 50 μM irinotecan
T1 construct: endogenous in cells; host or cells: LS513
T1 sequence (P11387 1-765): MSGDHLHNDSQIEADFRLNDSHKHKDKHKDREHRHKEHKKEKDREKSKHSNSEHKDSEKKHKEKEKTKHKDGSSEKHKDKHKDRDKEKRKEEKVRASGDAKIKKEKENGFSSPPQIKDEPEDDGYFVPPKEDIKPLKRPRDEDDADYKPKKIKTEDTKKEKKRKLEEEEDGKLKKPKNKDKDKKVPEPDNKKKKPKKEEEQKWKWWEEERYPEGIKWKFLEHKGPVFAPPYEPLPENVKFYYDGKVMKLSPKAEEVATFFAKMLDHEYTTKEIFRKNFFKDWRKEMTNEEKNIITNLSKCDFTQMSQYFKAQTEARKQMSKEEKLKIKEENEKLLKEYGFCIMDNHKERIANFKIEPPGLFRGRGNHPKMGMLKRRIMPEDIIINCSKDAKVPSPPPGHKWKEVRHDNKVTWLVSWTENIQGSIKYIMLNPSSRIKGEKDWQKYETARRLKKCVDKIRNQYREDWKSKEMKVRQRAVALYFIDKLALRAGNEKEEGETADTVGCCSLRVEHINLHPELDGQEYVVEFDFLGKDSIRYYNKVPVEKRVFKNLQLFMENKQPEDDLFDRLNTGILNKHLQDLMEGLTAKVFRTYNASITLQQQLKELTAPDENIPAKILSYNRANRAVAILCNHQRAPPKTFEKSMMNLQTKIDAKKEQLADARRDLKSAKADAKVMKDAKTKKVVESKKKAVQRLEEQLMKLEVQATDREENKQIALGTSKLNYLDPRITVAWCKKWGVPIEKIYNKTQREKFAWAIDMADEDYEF
Method: Three different concentrations of DNA (recovered from the DNA peak fractions of each CsCI gradient) were spotted onto the membrane.
The blot was placed on a phosphorimager and signal strengths from the 2 μg slots were quantified. Based upon comparison to a known standard of purified topoisomerase I on the same blot, the signals are expressed as ng or topoisomerase I per ml of DNA=no additions (i.e., untreated). The data are quantified in Table 22 and FIG. 35.

[6] = tested on: LS513 cells; test: Proliferation assay with median effect analysis, LS513; assay type: cell-based; conditions: Homo sapiens, LS-513, topotecan 1 μg/ml, supernatant 25% v/v, antibodies 10 μg/ml, read-out: Fractional Inhibition
Method: (§3) MTS was added for the final 5 hours of culture as recommended by the manufacturer (CelTiter, 96 AQueous Non-Radioactive Cell Proliferation Assay, Promega, Madison, Wis.), and the absorbence was read in a DigiScan reader (ASYS Hitech, Austria) at A492 nm. Samples were evaluated in triplicate. Tumor cells cultured in maintenance media with no addition and the maintenance media alone were used as controls. Fractional inhibition was determined by the following formula: [formula]
According to this method, “synergy” is indicated by a Cl of less than 1, “addition” by a Cl equal to 1, and “antagonism” by a Cl greater than 1. A Cl of less than 0.3 is considered to represent “strong synergism”, and a Cl greater than 3.3 is considered to represent “strong antagonism”.

[7] = tested on: SKBR3 cells; test: Tumor proliferation assay (MTS), SKBR3; assay type: cell-based, human; conditions: tamoxifen 10 μg/ml; for inhibition at 10 µg/mL: Homo sapiens, SKBR3, Factor C 5% v/v, read-out: Fractional Inhibition
Method: as §3, with “(CeiTiter” for “(CelTiter,”, “AQueous,” for “AQueous”, “Assay;” for “Assay,”, “formula set forth above.” for “following formula: [formula]”
The combined effects of the drugs and supernatants were analyzed by the median effect method of Chou and Talalay using CalcuSyn software (see above). […] According to this method, “synergy” is indicated by a Cl of less than 1, “addition” by a Cl equal to 1, and “antagonism” by a Cl greater than 1. A Cl of less than 0.3 is considered to represent “strong synergism”, and a Cl greater than 3.3 is considered to represent “strong antagonism”.

[8] = tested on: Fas (CD95) of SKBR3 cells; test: Fas (CD95) expression by flow cytometry, SKBR3; assay type: cell-based, human; conditions: tamoxifen 10 μg/ml
Method: as §1, with “assess Fas” for “assess FasR”, “cycle. Cells were reacted sequentially with mAb to Fas (CD95) and then with a fluorescenated goat anti-mouse antibody, according to the recommendations of the manufacturer. Percent fluorescent cells and fluorescence intensity was determined using an Epics Elite cytofluorograph (Coulter Corp.). All samples were compared to their isotype-matched controls.” for “cycle.”, “cytometer” for “cytometer (Coulter Corporation)”, “using” for “using the”, “LT program, as described above.” for “LT program (Verity Software House, Inc., Topsham, Me.).”, “G1-G0, S,” for “G1-G0, S”

[9] = tested on: caspase-3; test: Caspase-3 activity, SKBR3; assay type: cell-based, human; conditions: Factor C 5% v/v, tamoxifen 10 μg/ml
Method: (§4) Caspase-3 and caspase-8 activities were determined using a calorimetric assay kit (R&D Systems, Inc., Minneapolis, Minn.). Assays were conducted according to the instructions of the manufacturer. Protein kinase C, Prote3in kinase c alpha and delta levels were determined by immunoprecipitation and Western blotting, as previously described. Hofmeister, et al., “Clustered CD20 induced apoptosis: src-family kinase, the proximal regulator of tyrosine phosphorylation, calcium influx, and caspase 3-dependent apoptosis”, Blood Cells Mol Dis, 26:133-43, 2000.

[10] = tested on: caspase-8; test: Caspase-8 activity, SKBR3; assay type: cell-based, human; conditions: Factor C 5% v/v, tamoxifen 10 μg/ml
Method: as §4

[11] = target: soluble Fas ligand (sFasL) in supernatants of anti-CD3/IL-2 activated-expanded T cells (human) (UniProt P48023); test: cell-based or functional assay
soluble Fas ligand (sFasL) in supernatants of anti-CD3/IL-2 activated-expanded T cells (human), sequence (P48023 130-281 limits assumed): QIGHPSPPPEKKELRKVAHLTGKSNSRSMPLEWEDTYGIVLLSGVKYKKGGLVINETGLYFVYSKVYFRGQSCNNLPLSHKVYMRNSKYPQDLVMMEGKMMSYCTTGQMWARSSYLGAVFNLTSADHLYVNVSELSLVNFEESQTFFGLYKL

[12] = tested on: SW480 cells; test: Proliferation assay (MTS), SW480; assay type: cell-based, human; conditions: Table 13; supernatant 25% v/v; IFN-γ, TNF-α 1,000 U/ml; antibodies 10 μg/ml
Method: as §3, with “Unstimulated and stimulated supernatants, as well as the expansion media, were added at a range of volumes to SW480, LS174T, or Jurkat cells or cultured in their maintenance media in 24-well plates for 96 hours. MTS” for “MTS”

Molecule: CCc1c2c(nc3ccc(OC(=O)N4CCC(N5CCCCC5)CC4)cc13)-c1cc3c(c(=O)n1C2)COC(=O)[C@]3(O)CC [CPT, Irinotecan HCl]
- CD95 [1]: 13
- CD95 [2]: 13
- Caspase-3 ([3]; LS513 Cells): 0.12
- Caspase-3 ([3]; SW480 Cells): 0.12
- Caspase-8 ([4]; LS513 Cells): 0.11
- Caspase-8 ([4]; SW480 Cells): 0.11
- topoisomerase I-DNA complexes signal ([5]; Time 1 hrs): 3.93 ng or topoisomerase I per ml of DNA
- topoisomerase I-DNA complexes signal ([5]; Time 12 hrs): 4.83 ng or topoisomerase I per ml of DNA
- topoisomerase I-DNA complexes signal ([5]; Time 48 hrs): 5.37 ng or topoisomerase I per ml of DNA

Molecule: CC[C@@]1(O)C(=O)OCc2c1cc1n(c2=O)Cc2cc3c(CN(C)C)c(O)ccc3nc2-1 [TPT, Topotecan]
- inhibition at 1 µg/mL [6]: 51%

Molecule: CC/C(=C(\c1ccccc1)c1ccc(OCCN(C)C)cc1)c1ccccc1 [Tamoxifen]
- inhibition at 10 µg/mL ([7]; SK-BR-3, Table 28, blocking antibody 50 μg/ml): 32%
- inhibition at 10 µg/mL ([7]; SK-BR-3, Table 29): 44.5%
- F1 ([7]; Table 27, SKBR3 cells): 0.28
- CD95 ([8]; Table 27, SKBR3 cells): 11
- CD 95 Cells ([8]; Table 29, SKBR3, CD95 mean cell fluorescence, Factor C 5% v/v): 1.8
- Caspase-3 [9]: 0.12
- Caspase-8 [10]: 0.01

B1: anti-FasL antibody NOK1 (antibody, from another filing, V domains shown)
VH: VQLQESGPELVKPGASVKISCKASGYAFSSSWMNWVKQRPGKGLEWIGRIYPGDGDTNDNGKFKGKATLTADKSSSTAYMQLSSLTSEDSAVYFCARSYYYDGSPWFTYWGQGTTVTVSS
VL: DIQMTQSPSSLSASLGDRVTISCRASQDISNYLNWYQQKPDGTVKLLIYYTSRLHSGVPSRFSGSGSGTDYSLTISNLEPEDIATYFCQQYSEFPWTFGGGTKLEIKR
- Fractional Inhibition - Run 1, Supernatant + anti-FasL (supernatant alone 0.36) [11]: 0.15
- Fractional Inhibition - Run 2, Supernatant + anti-FasL (supernatant alone 0.41) [11]: 0.21
- Fractional Inhibition, Sup + TPT + anti-FasL on LS513 cells (Sup + TPT alone 0.84) [11]: 0.69

B2: IFN: human recombinant IFN-γ (protein, UniProt P01579 24-161, looked up)
Interferon gamma: QDPYVKEAENLKKYFNAGHSDVADNGTLFLGILKNWKEESDRKIMQSQIVSFYFKLFKNFKDDQSIQKSVETIKEDMNVKFFNSNKKKRDDFEKLTNYSVTDLNVQRKAIHELIQVMAELSPAAKTGKRKRSQMLFRG
- Fractional Inhibition - Run 1 [12]: 0.01
- Fractional Inhibition - Run 2 [12]: 0.011
